This is an account of results in patent US7014839B2, “Light imaging contrast agents” (Amersham Health AS, priority 1995, dated 2006).

Data set [1] is described as follows: Average particle size of milled nanoparticle suspensions (light scattering). To be noted: 15 gm agent and 3 gm Pluronic F108 per 100 ml, light scattering. Here is the method: WIN 70146 (an iodinated X-ray contrast agent prepared according to Example 23 below) was added to each of 3×1.5 oz brown glass bottles containing approximately 12 ml of zirconium silicate, 1.1 mm diameter beads in an amount sufficient to be 15% (wt/vol %) of the final suspension. Bottle A was also made 3% (wt/vol %) Pluronic F-68 while bottle B was made 3% (wt/vol %)) Pluronic F-108 and bottle C was made 3% (wt/vol %) Tetronic T-908. The resulting suspensions were milled at approx 150 rpm for a total of 9 days with estimates of particle size determined at various intervals as detailed below.
WIN 70146 was milled with 1.1 mm diameter zirconium silicate beads for 3 days under aseptic conditions. The concentration of this agent was 15% WIN 70146 in the presence of 4% Pluronic F-108. No additional salts or surfactants were added.
WIN 70146 was milled with 1.1 mm diameter zirconium silicate beads in the presence of Pluronic F-108 for 3 days. […] At this point, sterile PEG 400 was added to the suspension such that at completion, the formulation contained 15% (wt/vol %) WIN 70146, 3% (wt/vol %) Pluronic F-108 and 10% PEG 400.
(§1) This suspension was then diluted in water to various levels listed below. The percent of incident light transmitted was then determined for each suspension at several wavelengths (see below). The suspensions were then dissolved by addition of methanol and examined for percent transmitted light against an equivalent solvent blank.
A formulation of WIN 70177 (an iodinated X-ray contrast agent prepared according to Example 24) was prepared as 15 gm of WIN 70177/100 ml of suspension and 4.25-gm of Pluronic F108/100 ml of suspension and 10 gm of PEG 400/100 ml of suspension.
A formulation of WIN 67722 (an iodinated X-ray contrast agent as described in U.S. Pat. No. 5,322,679) was prepared as in Example 1 using 3% Pluronic F108 and 15% PEG 1450.
as §1

Data set [2] in a line: Residence within the vasculature after injection. It counts as in vivo. To be noted: nanoparticles. Here is the method:
WIN 72115 was designed to be excited with incident radiation from an Argon Ion laser (in the green, near 514 nm) and emit light at wavelengths above that value. Thus, after injection, illumination of the patient with green light would stimulate emission of light of a slightly different wavelength that could be used for diagnostic purposes. The key features of this agent are that it can be prepared as nanoparticles, remain within the vasculature for greater than 15 minutes, provide both scattering and fluorescence contrast for light imaging. In place of WIN 72115, the photolabelled agent of Example 22 below may be used.

One may read the melting point as the temperature of the solid-liquid transition. Compound `CCOC(=O)c1c(I)c(NS(=O)(=O)c2cccc3c(N(C)C)cccc23)c(I)c(N(CC)C(C)=O)c1I` [WIN 72115, 3-(N-Acetyl-N-ethylamino)-5-[(5-dimethylamino-1-naphthylsulfonyl)amino]-2,4,6-triiodobenzoic Acid Ethyl Ester] yielded a melting point of 238 to 240 °C. The same compound had an average particle size in data set [1] of 225 nm. For the same compound, the “Time remaining within the vasculature” value in data set [2] is recorded as “greater than 15 minutes”.
